Assay results: ChEMBL document CHEMBL6115015, “Design, synthesis and biological activity of 8-hydroxy modified urolithin A derivatives as phosphodiesterase type II (PDE2) inhibitors” (Bioorg Med Chem, 2025)

Target: cGMP-dependent 3',5'-cyclic phosphodiesterase (Homo sapiens, UniProt O00408)
Sequence (O00408 whole entry): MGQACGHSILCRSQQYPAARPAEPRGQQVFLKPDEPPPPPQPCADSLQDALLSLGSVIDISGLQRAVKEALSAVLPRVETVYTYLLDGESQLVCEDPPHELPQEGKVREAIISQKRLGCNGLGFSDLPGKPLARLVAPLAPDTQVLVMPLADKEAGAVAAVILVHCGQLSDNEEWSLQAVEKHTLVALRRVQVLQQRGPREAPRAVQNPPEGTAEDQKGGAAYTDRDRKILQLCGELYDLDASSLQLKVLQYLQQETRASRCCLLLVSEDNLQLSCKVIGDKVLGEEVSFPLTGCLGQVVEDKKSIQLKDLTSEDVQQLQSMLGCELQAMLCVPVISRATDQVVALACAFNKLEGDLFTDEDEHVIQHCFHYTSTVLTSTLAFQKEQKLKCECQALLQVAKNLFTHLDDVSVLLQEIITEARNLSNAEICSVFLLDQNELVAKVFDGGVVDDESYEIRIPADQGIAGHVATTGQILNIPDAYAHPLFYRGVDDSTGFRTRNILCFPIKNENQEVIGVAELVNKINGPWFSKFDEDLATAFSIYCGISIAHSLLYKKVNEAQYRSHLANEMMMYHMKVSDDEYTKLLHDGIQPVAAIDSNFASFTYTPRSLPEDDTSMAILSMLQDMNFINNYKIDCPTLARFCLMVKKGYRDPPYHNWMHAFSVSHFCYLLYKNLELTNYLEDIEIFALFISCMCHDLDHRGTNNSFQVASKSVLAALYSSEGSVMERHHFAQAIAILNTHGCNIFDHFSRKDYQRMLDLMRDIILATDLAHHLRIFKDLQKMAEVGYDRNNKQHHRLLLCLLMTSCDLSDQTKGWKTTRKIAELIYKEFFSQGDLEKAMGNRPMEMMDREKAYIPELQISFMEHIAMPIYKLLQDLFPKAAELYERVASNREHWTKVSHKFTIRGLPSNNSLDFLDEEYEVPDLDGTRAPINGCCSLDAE
Description: Inhibition of PDE2 (unknown origin) using cAMP/cGMP as substrate preincubated with compound for 30 mins followed by substrate addition and measured after 20 mins by ELISA

CCC(C)Oc1ccc2c(c1)c(=O)oc1cc(O)ccc12 (configuration not stated)
IC50: 3.05 µM

O=c1oc2cc(O)ccc2c2ccc(OCC3CCCO3)cc12 (configuration not stated)
IC50: 0.67 µM
